Laboratory results as given in US20240025919A1, “AZA-TETRACYCLIC OXAZEPINE COMPOUNDS AND USES THEREOF” (Genentech, Inc., priority 2022, published 2024).

Tests used:
[1] = target: KRAS G12D (Homo sapiens (Human), UniProt P01116, G12D); assay: KRAS G12D LoEnz Biochemical Assay, BODIPY-GDP Exchange TR-FRET (SOS1-mediated nucleotide exchange); conditions: read-out: KRas (G12D) GDP HTRF IC50
[2] = target: KRAS WT (Homo sapiens (Human), UniProt P01116); assay: KRAS WT Biochemical Assay, BODIPY-GDP Exchange TR-FRET (Example 501; 3 nM KRAS WT, 3 nM SOS1, 60-minute incubation); conditions: read-out: KRas HTRF IC50
Chain of KRAS WT (P01116-2 other isoform, or with tags, fused parts or gaps): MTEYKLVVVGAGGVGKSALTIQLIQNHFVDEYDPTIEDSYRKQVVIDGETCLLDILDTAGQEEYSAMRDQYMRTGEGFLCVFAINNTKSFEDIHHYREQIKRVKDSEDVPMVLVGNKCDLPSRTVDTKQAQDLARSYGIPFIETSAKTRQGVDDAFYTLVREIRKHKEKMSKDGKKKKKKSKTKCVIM
Procedure, shortened: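 SOS1-mediated exchange assay: 3 nM biotin-KRAS WT with terbium-streptavidin, started with 3 nM SOS1 and 300 nM BODIPY-GDP, HEPES pH 7.5 with MgCl2. TR-FRET (520/490 nm) read after 60 min; normalized to DMSO and full-inhibition control, IC50 from 4-parameter Hill fit.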

Chain of KRAS G12D (P01116-2 other isoform, or with tags, fused parts or gaps G12D): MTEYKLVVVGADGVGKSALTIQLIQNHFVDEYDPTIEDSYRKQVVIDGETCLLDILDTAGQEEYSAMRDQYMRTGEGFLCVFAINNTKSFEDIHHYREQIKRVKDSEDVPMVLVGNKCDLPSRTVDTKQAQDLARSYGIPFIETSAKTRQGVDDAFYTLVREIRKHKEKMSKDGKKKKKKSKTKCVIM

Row | Compound | IC50 [1] [nM] | IC50 [2] [nM]
1 | Cc1c(F)c(N)cc(-c2nc3c4c(nc(OC[C@@]56CCCN5C[C@H](F)C6)nc4c2F)N2C[C@H]4CC[C@H](NC4)[C@H]2CO3)c1C(F)(F)F [Compound 236, 2-Fluoro-5-((5aS,6S,9S)-1-fluoro-12-(((2R,7aS)-2-fluorotetrahydro-1H-pyrrolizin-7a(5H)-yl)methoxy)-5a,6,7,8,9,10-hexahydro-5H-4-oxa-3,10a,11,13,15-pentaaza-6,9-ethanonaphtho[1,8-ab]heptalene-2-yl)-3-methyl-4-(trifluoromethyl)aniline] | 68 | 830
2 | Cc1c(F)c(N)cc(-c2nc3c4c(nc(OC[C@@]56CCCN5C[C@H](F)C6)nc4c2F)N2C[C@H]4CC[C@H](N4)[C@H]2C(CF)O3)c1C(F)(F)F (stereo partly drawn) [Compound 239, 2-Fluoro-5-((5aS,6S,9R)-1-fluoro-5-(fluoromethyl)-12-(((2R,7aS)-2-fluorotetrahydro-1H-pyrrolizin-7a(5H)-yl)methoxy)-5a,6,7,8,9,10-hexahydro-5H-4-oxa-3,10a,11,13,14-pentaaza-6,9-methanonaphtho[1,8-ab]heptalen-2-yl)-3-methyl-4-(trifluoromethyl)aniline] | 0.58 | 0.94
3 | Cc1c(Cl)c(N)cc(-c2nc3c4c(nc(OC[C@@]56CCCN5C[C@H](F)C6)nc4c2Cl)N2C[C@H]4CC[C@H](N4)[C@H]2[C@H](C)O3)c1C(F)(F)F [Compound 241, 2-Chloro-5-((5S,5aS,6S,9R)-1-chloro-12-(((2R,7aS)-2-fluorotetrahydro-1H-pyrrolizin-7a(5H)-yl)methoxy)-5-methyl-5a,6,7,8,9,10-hexahydro-5H-4-oxa-3,10a,11,13,14-pentaaza-6,9-methanonaphtho[1,8-ab]heptalen-2-yl)-3-methyl-4-(trifluoromethyl)aniline] | 0.13 | 15.4
4 | Cc1nc(N)cc(-c2nc3c4c(nc(OC[C@@]56CCCN5C[C@H](F)C6)nc4c2F)N2C[C@H]4CC[C@H](N4)[C@H]2[C@H](C(F)(F)F)O3)c1C(F)(F)F [Compound 242, 4-((5R,5aS,6S,9R)-1-Fluoro-12-(((2R,7aS)-2-fluorotetrahydro-1H-pyrrolizin-7a(5H)-yl)methoxy)-5-(trifluoromethyl)-5a,6,7,8,9,10-hexahydro-5H-4-oxa-3,10a,11,13,14-pentaaza-6,9-methanonaphtho[1,8-ab]heptalen-2-yl)-6-methyl-5-(trifluoromethyl)pyridin-2-amine] | 0.33 | 5.29
5 | Cc1c(F)c(N)cc(-c2nc3c4c(nc(OC[C@@H]5CC[C@H]6COCCN65)nc4c2F)N2C[C@H]4CC[C@H](N4)[C@H]2[C@H](C(F)(F)F)O3)c1C(F)(F)F [Compound 245, 2-Fluoro-5-((5R,5aS,6S,9R)-1-fluoro-12-(((6S,8aS)-hexahydro-1H-pyrrolo[2,1-c][1,4]oxazin-6-yl)methoxy)-5-(trifluoromethyl)-5a,6,7,8,9,10-hexahydro-5H-4-oxa-3,10a,11,13,14-pentaaza-6,9-methanonaphtho[1,8-ab]heptalene-2-yl)-3-methyl-4-(trifluoromethyl)aniline] | 0.249 | 7.44
6 | Cc1c(F)c(N)cc(-c2nc3c4c(nc(OC[C@@]56CCCN5C[C@H](F)C6)nc4c2F)N2C[C@H]4CC[C@H](N4)[C@H]2[C@H](C(F)(F)F)O3)c1C(F)(F)F [Compound 247, 2-Fluoro-5-((5R,5aS,6S,9R)-1-fluoro-12-(((2R,7aS)-2-fluorotetrahydro-1H-pyrrolizin-7a(5H)-yl)methoxy)-5-(trifluoromethyl)-5a,6,7,8,9,10-hexahydro-5H-4-oxa-3,10a,11,13,14-pentaaza-6,9-methanonaphtho[1,8-ab]heptalene-2-yl)-3-methyl-4-(trifluoromethyl)aniline] | 0.21 | 0.959
7 | Cc1c(F)c(N)cc(-c2nc3c4c(nc(OC[C@@]56CCCN5C[C@H](F)C6)nc4c2F)N2C[C@H]4CC[C@H](N4)[C@@H]2[C@@H](C(F)(F)F)O3)c1C(F)(F)F [Compound 248, 2-Fluoro-5-((5S,5aR,6S,9R)-1-fluoro-12-(((2R,7aS)-2-fluorotetrahydro-1H-pyrrolizin-7a(5H)-yl)methoxy)-5-(trifluoromethyl)-5a,6,7,8,9,10-hexahydro-5H-4-oxa-3,10a,11,13,14-pentaaza-6,9-methanonaphtho[1,8-ab]heptalene-2-yl)-3-methyl-4-(trifluoromethyl)aniline] | 1.1 | 0.522
8 | Cc1c(F)c(N)cc(-c2nc3c4c(nc(OCC5(CN6CCOCC6)CC5)nc4c2F)N2C[C@H]4CC[C@H](N4)[C@H]2[C@H](C(F)(F)F)O3)c1C(F)(F)F [Compound 249, 2-Fluoro-5-((5R,5aS,6S,9R)-1-fluoro-12-((1-(morpholinomethyl)cyclopropyl)methoxy)-5-(trifluoromethyl)-5a,6,7,8,9,10-hexahydro-5H-4-oxa-3,10a,11,13,14-pentaaza-6,9-methanonaphtho[1,8-ab]heptalene-2-yl)-3-methyl-4-(trifluoromethyl)aniline] | 0.22 | 1.37
9 | Cc1c(F)c(N)cc(-c2nc3c4c(nc(OC[C@@]56CCCN5C[C@H](F)C6)nc4c2F)N2C[C@H]4CC[C@H](N4)[C@H]2[C@H](C(F)(F)F)O3)c1CC(F)F [Compound 250, 4-(2,2-Difluoroethyl)-2-fluoro-5-((5R,5aS,6S,9R)-1-fluoro-12-(((2R,7aS)-2-fluorotetrahydro-1H-pyrrolizin-7a(5H)-yl)methoxy)-5-(trifluoromethyl)-5a,6,7,8,9,10-hexahydro-5H-4-oxa-3,10a,11,13,14-pentaaza-6,9-methanonaphtho[1,8-ab]heptalene-2-yl)-3-methylaniline] | 0.39 | 13.6
10 | C#Cc1cccc2cc(O)cc(-c3nc4c5c(nc(OC[C@@]67CCCN6C[C@H](F)C7)nc5c3F)N3C[C@H]5CC[C@H](N5)[C@H]3[C@H](C(F)(F)F)O4)c12 [Compound 251, 5-Ethynyl-4-((5R,5aS,6S,9R)-1-fluoro-12-(((2R,7aS)-2-fluorotetrahydro-1H-pyrrolizin-7a(5H)-yl)methoxy)-5-(trifluoromethyl)-5a,6,7,8,9,10-hexahydro-5H-4-oxa-3,10a,11,13,14-pentaaza-6,9-methanonaphtho[1,8-ab]heptalene-2-yl)naphthalen-2-ol] | 0.16 | 1.05
11 | Cc1nc(N)cc(-c2nc3c4c(nc(OC[C@@H]5CC[C@H]6COCCN65)nc4c2F)N2C[C@H]4CC[C@H](N4)[C@H]2[C@H](C(F)(F)F)O3)c1C(F)(F)F [Compound 253, 4-((5R,5aS,6S,9R)-1-Fluoro-12-(((6S,8aS)-hexahydro-1H-pyrrolo[2,1-c][1,4]oxazin-6-yl)methoxy)-5-(trifluoromethyl)-5a,6,7,8,9,10-hexahydro-5H-4-oxa-3,10a,11,13,14-pentaaza-6,9-methanonaphtho[1,8-ab]heptalene-2-yl)-6-methyl-5-(trifluoromethyl)pyridin-2-amine] | 1.03 | 37.1
12 | Cc1nc(N)cc(-c2nc3c4c(nc(OC[C@@]56CCCN5CC5(CC5(F)F)C6)nc4c2F)N2C[C@H]4CC[C@H](N4)[C@H]2[C@H](C(F)(F)F)O3)c1C(F)(F)F (stereo partly drawn) [Compound 254, 4-((5R,5aS,6S,9R)-12-(((7a′S)-2,2-Difluorodihydro-1′H,3′H-spiro[cyclopropane-1,2′-pyrrolizin]-7a′(5′H)-yl)methoxy)-1-fluoro-5-(trifluoromethyl)-5a,6,7,8,9,10-hexahydro-5H-4-oxa-3,10a,11,13,14-pentaaza[6,9]methanonaphtho[1,8-ab]heptalene-2-yl)-6-methyl-5-(trifluoromethyl)pyridin-2-amine] | 0.49 | 1.25
